“Also recorded” adds a separate entry of the source.
Columns and labels:
CACNA1 A IRES pRCTF = assay: Preliminary screening, pRCTF R-Luc/F-Luc bicistronic reporter in HEK293 cells; format: cell-based, human
PC12 cells = assay: NGF-induced neurite outgrowth of transfected PC12 cells; format: cell-based, rat; conditions: NGF treatment

Compound | activity of CACNA1A IRES pRCTF (CACNA1 A IRES pRCTF) | α1AWT-induced neurite outgrowth (PC12 cells; PC12 cells expressing full-length α1AWT-FLAG) | α1ACTWT-induced (enhanced) neurite outgrowth (PC12 cells; PC12 cells transfected with α1ACTWT-FLAG)
COc1ccc(C[C@H]2NC[C@H](O)[C@H]2OC(C)=O)cc1 [anisomycin] | has the potential to inhibit | – | –
ω-agatoxin | – | could not be blocked; also recorded: did not block | no effect
